Assay results published in patent US20250129092A1, “COMPOUNDS USEFUL IN MODULATION OF AHR SIGNALLING” (JAGUAHR THERAPEUTICS PTE LTD, priority 2021, published 2025).
≈ marks a conversion by molar mass, not a printed value. Blank lines part the entries; values can stand above or below the compound they belong to.

What was measured:
[1] = Caco-2 permeability / efflux; type: in vitro ADME; conditions: human
CYP 2C19 = CYP 2C19 (Homo sapiens, UniProt P33261); experiment: CYP 2C19; type: in vitro ADME
Hepatocytes Clint (Hu) = type: in vitro ADME; conditions: human
AhR [2] = biological target: T1, AhR (Homo sapiens, UniProt P35869); experiment: AhR antagonism in U937 cells (Promega P450-Glo assay); type: cell-based; set-up: endogenous in cells; host or cells: U937 cells; conditions: CYP1A1 activity readout (Luciferin-CEE), head names VAF347, average, read-out: U937 Antagonist pIC50-VAF347: av. pIC50 (converted)
T1 sequence (P35869 11-848): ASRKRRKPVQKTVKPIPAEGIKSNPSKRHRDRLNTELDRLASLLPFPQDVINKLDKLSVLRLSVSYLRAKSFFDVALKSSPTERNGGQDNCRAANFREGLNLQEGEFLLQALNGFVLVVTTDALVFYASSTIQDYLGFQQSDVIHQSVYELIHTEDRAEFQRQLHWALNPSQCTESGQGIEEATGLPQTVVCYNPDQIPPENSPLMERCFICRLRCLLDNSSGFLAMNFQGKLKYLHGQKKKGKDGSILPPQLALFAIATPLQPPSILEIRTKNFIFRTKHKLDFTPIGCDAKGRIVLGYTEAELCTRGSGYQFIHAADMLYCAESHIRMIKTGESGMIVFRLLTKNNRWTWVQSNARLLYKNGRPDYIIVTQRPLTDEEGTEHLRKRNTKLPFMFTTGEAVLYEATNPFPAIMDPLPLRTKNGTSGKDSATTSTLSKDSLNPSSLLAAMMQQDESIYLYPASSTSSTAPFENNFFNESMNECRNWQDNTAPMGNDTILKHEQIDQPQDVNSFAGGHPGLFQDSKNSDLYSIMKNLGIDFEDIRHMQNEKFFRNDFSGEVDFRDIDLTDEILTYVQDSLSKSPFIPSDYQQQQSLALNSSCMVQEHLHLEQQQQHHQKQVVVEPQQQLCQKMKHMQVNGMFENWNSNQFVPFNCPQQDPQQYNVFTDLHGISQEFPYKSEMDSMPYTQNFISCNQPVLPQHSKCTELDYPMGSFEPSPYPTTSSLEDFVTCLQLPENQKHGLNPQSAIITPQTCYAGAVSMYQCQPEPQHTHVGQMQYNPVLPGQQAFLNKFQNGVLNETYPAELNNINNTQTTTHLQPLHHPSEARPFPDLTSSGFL
How it was run: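 Human U937 histiocytic lymphoma cells were seeded in Ultraculture serum free media (Lonza) at 100,000 cells per well in round bottom 96 well plates and exposed to seven test compound concentrations for 24 hrs at 37° C., ≥85% humidity, 5% CO2. AhR antagonism was measured as CYP1A1 activity. After removing supernatant, Luciferin-CEE ([Final] 83 μM) was added for 3 hrs. Detection reagent stopped the reaction, and luminescence was read 20 minutes later.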

CYP 2D6 = CYP 2D6 (Homo sapiens, UniProt P10635); experiment: CYP 2D6; type: in vitro ADME
CYP 2C9 = CYP 2C9 (Homo sapiens, UniProt P11712); experiment: CYP 2C9; type: in vitro ADME
CYP 3A4 = CYP 3A4 (Homo sapiens, UniProt P08684); experiment: CYP 3A4; type: in vitro ADME
ChromLogD = type: physicochemical
Hepatocytes Clint (m) = type: in vitro ADME; conditions: mouse
Kinetic solubility = type: physicochemical; conditions: kinetic from dmso stock
CYP 1A2 = biological target: T2, CYP 1A2 (Homo sapiens, UniProt P05177); experiment: CYP 1A2; type: in vitro ADME
T2 sequence (P05177 1-516): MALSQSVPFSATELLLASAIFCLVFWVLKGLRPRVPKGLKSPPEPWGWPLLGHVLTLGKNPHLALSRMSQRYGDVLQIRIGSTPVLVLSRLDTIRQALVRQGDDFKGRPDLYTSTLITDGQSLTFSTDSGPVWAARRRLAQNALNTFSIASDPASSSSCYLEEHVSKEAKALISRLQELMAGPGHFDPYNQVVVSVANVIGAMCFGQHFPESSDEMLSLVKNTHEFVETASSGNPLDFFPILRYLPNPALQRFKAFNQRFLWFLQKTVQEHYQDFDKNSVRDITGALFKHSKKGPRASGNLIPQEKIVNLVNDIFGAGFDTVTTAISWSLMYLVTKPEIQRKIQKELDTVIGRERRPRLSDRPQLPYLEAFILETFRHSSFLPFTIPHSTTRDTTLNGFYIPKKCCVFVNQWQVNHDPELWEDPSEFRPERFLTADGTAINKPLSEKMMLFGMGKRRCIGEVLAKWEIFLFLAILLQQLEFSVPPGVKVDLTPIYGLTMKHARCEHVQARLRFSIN

hERG = hERG (Homo sapiens, UniProt Q12809); experiment: hERG
AhR [3] = biological target: T1, AhR; experiment: AhR antagonism in human PBMCs - inhibition of IL-22 release; type: cell-based; set-up: endogenous in cells; conditions: human PBMCs activated with CD3/CD28 agonist mixture, 72 hrs, IL-22 ELISA; average; read-out: hPBMC Inhibition of CD3/CD28 induced IL-22 release: av. pIC50 (converted)
How it was run: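 Human PBMCs (1×10^6 cells/ml, 100,000 per well) activated with CD3/CD28 agonist (TransAct); seven compound concentrations added 1 h later (0.2% DMSO final). After 72 h at 37 °C, IL-22 in medium measured by ELISA.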

Chain of CYP 3A4 (P08684 whole entry, species assumed): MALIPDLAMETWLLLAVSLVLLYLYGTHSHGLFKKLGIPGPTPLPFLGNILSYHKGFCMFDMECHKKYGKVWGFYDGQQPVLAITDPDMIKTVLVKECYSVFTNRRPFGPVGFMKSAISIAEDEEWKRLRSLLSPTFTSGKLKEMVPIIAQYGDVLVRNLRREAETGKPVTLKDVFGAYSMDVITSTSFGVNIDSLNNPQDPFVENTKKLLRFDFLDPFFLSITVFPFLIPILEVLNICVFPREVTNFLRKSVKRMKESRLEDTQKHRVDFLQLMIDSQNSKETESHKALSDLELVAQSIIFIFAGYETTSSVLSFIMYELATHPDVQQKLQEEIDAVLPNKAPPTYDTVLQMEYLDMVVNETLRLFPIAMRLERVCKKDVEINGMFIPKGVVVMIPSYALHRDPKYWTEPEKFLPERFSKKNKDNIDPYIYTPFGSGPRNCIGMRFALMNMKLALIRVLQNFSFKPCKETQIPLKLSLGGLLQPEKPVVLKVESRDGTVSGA
Chain of CYP 2C19 (P33261 whole entry): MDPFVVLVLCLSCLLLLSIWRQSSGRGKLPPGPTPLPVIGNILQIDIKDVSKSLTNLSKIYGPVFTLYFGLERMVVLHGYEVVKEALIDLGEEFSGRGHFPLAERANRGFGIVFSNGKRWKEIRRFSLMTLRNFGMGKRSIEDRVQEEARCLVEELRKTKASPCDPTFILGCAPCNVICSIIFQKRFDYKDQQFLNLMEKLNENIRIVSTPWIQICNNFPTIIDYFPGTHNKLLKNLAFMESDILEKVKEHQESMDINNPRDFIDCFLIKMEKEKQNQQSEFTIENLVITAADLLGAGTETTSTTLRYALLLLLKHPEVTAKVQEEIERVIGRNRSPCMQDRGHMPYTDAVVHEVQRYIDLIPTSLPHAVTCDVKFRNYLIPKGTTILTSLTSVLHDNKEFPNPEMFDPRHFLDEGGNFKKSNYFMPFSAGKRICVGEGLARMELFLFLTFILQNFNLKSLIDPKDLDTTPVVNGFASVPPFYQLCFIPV
Chain of CYP 2D6 (P10635 whole entry): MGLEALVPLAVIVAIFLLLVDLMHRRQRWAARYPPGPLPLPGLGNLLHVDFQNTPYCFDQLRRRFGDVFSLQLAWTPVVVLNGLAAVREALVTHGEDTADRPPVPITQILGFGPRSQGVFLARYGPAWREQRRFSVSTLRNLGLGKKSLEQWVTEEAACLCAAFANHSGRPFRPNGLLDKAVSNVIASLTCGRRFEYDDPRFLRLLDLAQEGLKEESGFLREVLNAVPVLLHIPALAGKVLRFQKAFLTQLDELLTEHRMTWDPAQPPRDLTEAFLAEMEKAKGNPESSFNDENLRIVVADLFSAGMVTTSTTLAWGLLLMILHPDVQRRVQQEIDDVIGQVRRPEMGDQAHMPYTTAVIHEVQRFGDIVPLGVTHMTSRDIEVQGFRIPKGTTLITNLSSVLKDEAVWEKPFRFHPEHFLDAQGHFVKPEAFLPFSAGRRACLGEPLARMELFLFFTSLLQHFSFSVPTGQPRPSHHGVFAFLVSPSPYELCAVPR
Chain of CYP 2C9 (P11712 whole entry): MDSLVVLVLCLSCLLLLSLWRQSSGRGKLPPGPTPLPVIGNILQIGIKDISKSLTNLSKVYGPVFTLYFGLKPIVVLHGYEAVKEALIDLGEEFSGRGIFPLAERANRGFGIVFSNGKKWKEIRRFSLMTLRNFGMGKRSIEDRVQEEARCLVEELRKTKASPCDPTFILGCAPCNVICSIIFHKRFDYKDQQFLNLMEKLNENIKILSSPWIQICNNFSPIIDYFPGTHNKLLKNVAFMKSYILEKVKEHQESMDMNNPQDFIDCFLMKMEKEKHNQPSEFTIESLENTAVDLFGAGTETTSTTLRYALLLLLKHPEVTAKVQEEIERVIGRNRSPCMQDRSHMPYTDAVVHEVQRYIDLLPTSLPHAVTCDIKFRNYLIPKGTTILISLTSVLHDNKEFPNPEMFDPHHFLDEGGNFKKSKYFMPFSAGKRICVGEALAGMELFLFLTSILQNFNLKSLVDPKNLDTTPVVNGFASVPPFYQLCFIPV
Chain of hERG (Q12809 whole entry): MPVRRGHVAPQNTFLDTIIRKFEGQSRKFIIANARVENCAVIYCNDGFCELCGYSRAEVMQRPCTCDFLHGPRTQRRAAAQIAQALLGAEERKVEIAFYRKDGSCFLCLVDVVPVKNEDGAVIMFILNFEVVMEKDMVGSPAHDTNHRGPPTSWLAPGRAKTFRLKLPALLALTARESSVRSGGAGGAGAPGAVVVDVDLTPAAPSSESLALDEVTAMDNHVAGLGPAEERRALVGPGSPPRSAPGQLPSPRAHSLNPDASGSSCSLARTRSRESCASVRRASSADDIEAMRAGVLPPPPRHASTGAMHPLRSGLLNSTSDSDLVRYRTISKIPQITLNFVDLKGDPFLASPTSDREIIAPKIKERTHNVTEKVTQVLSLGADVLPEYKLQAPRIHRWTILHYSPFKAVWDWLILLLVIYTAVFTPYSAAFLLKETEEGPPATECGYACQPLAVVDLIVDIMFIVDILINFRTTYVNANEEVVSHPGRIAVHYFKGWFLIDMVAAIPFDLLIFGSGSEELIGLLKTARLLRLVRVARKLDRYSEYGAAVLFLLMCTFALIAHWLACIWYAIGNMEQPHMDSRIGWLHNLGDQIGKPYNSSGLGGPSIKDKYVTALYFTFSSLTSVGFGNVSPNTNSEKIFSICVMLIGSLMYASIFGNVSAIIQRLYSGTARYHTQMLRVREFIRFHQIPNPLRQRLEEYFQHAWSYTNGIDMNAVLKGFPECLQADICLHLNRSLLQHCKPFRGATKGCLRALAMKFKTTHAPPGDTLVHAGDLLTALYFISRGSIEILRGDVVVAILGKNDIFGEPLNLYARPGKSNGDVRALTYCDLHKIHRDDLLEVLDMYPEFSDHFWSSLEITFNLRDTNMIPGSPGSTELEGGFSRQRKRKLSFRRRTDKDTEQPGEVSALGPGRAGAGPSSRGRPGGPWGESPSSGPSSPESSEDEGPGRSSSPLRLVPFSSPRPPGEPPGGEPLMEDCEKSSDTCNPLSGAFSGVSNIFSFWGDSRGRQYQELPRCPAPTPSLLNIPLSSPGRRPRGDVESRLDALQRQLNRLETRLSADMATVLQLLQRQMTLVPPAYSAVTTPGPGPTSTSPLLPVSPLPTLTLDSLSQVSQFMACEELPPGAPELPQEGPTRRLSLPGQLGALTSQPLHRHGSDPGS

SMILES: O=c1[nH]cccc1-c1nc2c(c(OCCc3c[nH]c4ccccc34)n1)OCCN2 [Example 25, 3-(4-(2-(1H-indol-3-yl)ethoxy)-7,8-dihydro-6H-pyrimido[5,4-b][1,4]oxazin-2-yl)pyridin-2(1H)-one]
efflux ratio [1]: 4
Papp A→B ([1]; A to B): 7.16 ×10⁻⁶ cm/s
IC50 (CYP 2C19): 43400 nM
hepatocyte CLint (Hepatocytes Clint (Hu)): 7.1 µL/min/1e6 cells
IC50 (AhR [2]): 2.69 nM
IC50 (CYP 2D6): 50000 nM
IC50 (CYP 2C9): 4700 nM
IC50 (CYP 3A4): 7200 nM
fold difference (3A4/U937) (CYP 3A4; CYP 3A4 versus U937): 1986
chromatographic logD (ChromLogD): 2.39
hepatocyte CLint (Hepatocytes Clint (m)): 115 µL/min/1e6 cells
solubility kinetic (Kinetic solubility): 119 µM (≈ 46.3 µg/mL)
IC50 (CYP 1A2): 45300 nM
IC50 (hERG): 7300 nM
IC50 (AhR [3]): 1.7 nM

SMILES: Cc1ccc(-c2nc3c(c(NCCc4c[nH]c5cc(F)ccc45)n2)OCCN3)cn1 [Example 20, N-[2-(6-fluoro-1H-indol-3-yl)ethyl]-2-(6-methyl-3-pyridyl)-7,8-dihydro-6H-pyrimido[5,4-b][1,4]oxazin-4-amine]
IC50 (AhR [2]): 91.2 nM
IC50 (AhR [3]): 43.7 nM

SMILES: Fc1cncc(-c2nc(NCCc3c[nH]c4ccccc34)c3c(n2)N[C@@H](C(F)(F)F)CO3)c1 [Example 32, (7R)-2-(5-fluoro-3-pyridyl)-N-[2-(1H-indol-3-yl)ethyl]-7-(trifluoromethyl)-7,8-dihydro-6H-pyrimido[5,4-b][1,4]oxazin-4-amine]
IC50 (AhR [2]): 2.51 nM
IC50 (AhR [3]): 14.5 nM

More lines, now with the values ahead:

IC50 (AhR [2]): 251 nM
IC50 (AhR [3]): 123 nM
SMILES: Cc1ncc(-c2nc(N[C@@H]3CCc4[nH]c5ccccc5c4C3)c3c(n2)N(CCO)CCO3)s1 [Example 37, 2-[2-(2-methylthiazol-5-yl)-4-[[(3R)-2,3,4,9-tetrahydro-1H-carbazol-3-yl]amino]-6,7-dihydropyrimido[5,4-b][1,4]oxazin-8-yl]ethanol]

IC50 (AhR [2]): 50.1 nM
IC50 (AhR [3]): 132 nM
SMILES: Cc1ncc(-c2nc3c(c(N[C@H]4Cc5cccc6[nH]cc(c56)C4)n2)OCCN3)s1 (single isomer, unassigned) [Example 62]

IC50 (AhR [2]): > 1000 nM
IC50 (AhR [3]): 977 nM
SMILES: COC[C@@H]1COc2c(N[C@@H]3CCc4[nH]c5ccccc5c4C3)nc(-c3cnc(C)s3)nc2N1CCN(C)C [Example 35, (7R)-8-[2-(dimethylamino)ethyl]-7-(methoxymethyl)-2-(2-methylthiazol-5-yl)-N-[(3R)-2,3,4,9-tetrahydro-1H-carbazol-3-yl]-6,7-dihydropyrimido[5,4-b][1,4]oxazin-4-amine]
